In PubChem BioAssay AID588374 (Southern Research Specialized Biocontainment Screening …, 2011):
“And” between values parts separate entries of the source, which are not always exact repeats. Equal entries are not always repeated. Inconclusive results are not listed. The source made the active and inactive calls.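 Rule for the calls: active = viability below 70% at one or more tested concentrations in every replicate; inactive = viability above 70% at all doses, or replicates disagree.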

Assays:
[1] = system: Vero E6 viability, CellTiter-Glo luminescence, 72 h; assay: Vero E6 cell cytotoxicity, SAR follow-up, cytotoxicity control for West Nile virus antiviral project, synthesized analogs, extended characterization 1 (AID 588374)
[2] = as above; conditions: Vero E6 viability, CellTiter-Glo luminescence, 72 h

SMILES | CC50 [1] [µM] | viability ([2]; at 100 µM (top of the series)) | other results
O=C(CCCCSc1nc2ccccc2c(=O)n1-c1ccc(F)c(Cl)c1)Nc1ccc2c(c1)CCC2 | 93.9 | – | –
O=C(CCCSc1nc2ccccc2c(=O)n1-c1ccc(Cl)c(Cl)c1)Nc1ccc2c(c1)CCC2 | – | 80.6% (inactive) | –
O=C(CSc1nc2ccccc2c(=O)n1-c1ccccc1)Nc1nc2ccc([N+](=O)[O-])cc2s1 | 40.5 | – | –
O=C(CCCCSc1nc2ccccc2c(=O)n1-c1cc(F)c(F)c(F)c1)Nc1ccc2c(c1)CCC2 | – | 70.2% (inactive) | –
O=C(CSc1nc2ccccc2c(=O)n1-c1ccc(Cl)c(Cl)c1)N1CCCCCC1 | – | 74.5% (inactive) | –
O=C(CCCCSc1nc2ccccc2c(=O)n1-c1ccccc1)Nc1ccc2c(c1)CCC2 | 50 | – | –
O=C(CSc1nc2ccccc2c(=O)n1-c1ccc(Cl)c(Cl)c1)Nc1ccc2c(c1)OCO2 | – | 74.2% (inactive) | –
O=C(CSc1nc2ccccc2c(=O)n1-c1cc(Cl)cc(Cl)c1)Nc1cccc2ccccc12 | – | 83.8% (inactive) | –
Cc1nc2cc(NC(=O)CSc3nc4ccccc4c(=O)n3-c3ccccc3)ccc2s1 | – | 75.1% (inactive) | –
Cc1nc2cc(NC(=O)CSc3nc4ccccc4c(=O)n3-c3ccc(Cl)c(Cl)c3)ccc2s1 | 18 | – | –
O=C(CSc1nc2ccccc2c(=O)n1-c1ccc(Cl)c(Cl)c1)Nc1ccc2c(c1)CCC2 | – | 70.3% (inactive) | –
O=C(CSc1nc2ccccc2c(=O)n1-c1ccccc1)Nc1ccc2c(c1)CCC2 | – | 76.9% (inactive) and 77% (inactive) | –
O=C(CSc1nc2ccccc2c(=O)n1-c1ccc(Cl)c(Cl)c1)Nc1nccs1 | 14.9 | – | –
O=C(CSc1nc2ccccc2c(=O)n1-c1ccccc1)Nc1nc(-c2ccccc2)cs1 | – | – | viability ([2]; at 50 µM (top of the series)): 77.7% (inactive)
O=C(CSc1nc2ccccc2c(=O)n1-c1ccc(F)c(F)c1)Nc1nccs1 | – | – | viability ([2]; at 50 µM (top of the series)): 74.1% (inactive)
O=C(CCCSc1nc2cccc(F)c2c(=O)n1-c1ccc(Cl)c(F)c1)Nc1ccc2c(c1)CCC2 | – | 82.9% (inactive) | –
O=C(CSc1nc2cccc(F)c2c(=O)n1-c1ccccc1)Nc1ccc2c(c1)OCO2 | – | 76.3% (inactive) | –
O=C(CSc1nc2ccccc2c(=O)n1-c1ccccc1)Nc1ccc2c(c1)OCO2 | 57.3 | – | –
Cn1c(NC(=O)CSc2nc3ccccc3c(=O)n2-c2ccccc2)nc2ccccc21 | 16.4 | – | –
O=C(CSc1nc2ccccc2c(=O)n1-c1ccccc1)Nc1cccc2c1CCC2 | 37.3 | – | –
O=C(CSc1nc2ccccc2c(=O)n1-c1ccccc1)Nc1nc2cc(Cl)ccc2o1 | 31.7 | – | –
O=C(CSc1nc2ccccc2c(=O)n1-c1ccccc1)NC1Cc2ccccc2C1 | – | 75.3% (inactive) | –
Cc1cnc(NC(=O)CSc2nc3ccccc3c(=O)n2-c2ccc(Cl)c(Cl)c2)s1 | 28.8 | – | –
O=C(CSc1nc2ccccc2c(=O)n1-c1cc(Cl)cc(Cl)c1)Nc1cccc2c1CCC2 | 17.5 | – | –

SMILES | CC50 [1] [µM] | viability ([2]; at 100 µM (top of the series)) | other results
O=C(CCCSc1nc2cccc(F)c2c(=O)n1-c1ccc(F)c(F)c1)Nc1ccc2c(c1)CCC2 | – | 78% (inactive) | –
O=C(CSc1nc2ccccc2c(=O)n1-c1ccccc1)Nc1nccs1 | – | 96.3% (inactive) | –
O=C(CSc1nc2ccccc2c(=O)n1-c1ccc(F)c(Cl)c1)Nc1cccc2ccccc12 | – | 75.5% (inactive) | –
O=C(CSc1nc2ccccc2c(=O)n1-c1cc(F)c(F)c(F)c1)Nc1ccc2c(c1)CCC2 | – | – | viability ([2]; at 50 µM (top of the series)): 76.3% (inactive)
O=C(CCCSc1nc2cccc(F)c2c(=O)n1-c1ccc(F)c(Br)c1)Nc1ccc2c(c1)CCC2 | – | 81.7% (inactive) | –
O=C(CCCCSc1nc2cccc(F)c2c(=O)n1-c1ccc(Cl)c(F)c1)Nc1ccc2c(c1)CCC2 | – | 81.9% (inactive) | –
O=C(CSc1nc2ccccc2c(=O)n1-c1cc(Cl)cc(Cl)c1)Nc1nccs1 | 18 | – | –
O=C(CSc1nc2ccccc2c(=O)n1-c1ccccc1)Nc1ccc2ncsc2c1 | – | 88.3% (inactive) | –
O=C(COc1nc2ccccc2c(=O)n1-c1ccccc1)Nc1ccc2c(c1)CCC2 | – | 71.6% (inactive) | –
O=C(CSc1nc2ccccc2c(=O)n1-c1ccc(Cl)c(Cl)c1)Nc1ncc([N+](=O)[O-])s1 | 21.7 | – | –
O=C(CSc1nc2ccccc2c(=O)n1-c1ccc(Cl)c(Cl)c1)Nc1cccc2c1CCC2 | – | – | viability ([2]; at 50 µM (top of the series)): 76.2% (inactive)
O=C(CCSc1nc2ccccc2c(=O)n1-c1ccc(F)c(Cl)c1)Nc1ccc2c(c1)CCC2 | – | 77.6% (inactive) | –
O=C(CSc1nc2cccc(F)c2c(=O)n1-c1ccccc1)Nc1ccc2ncsc2c1 | – | – | viability ([2]; at 50 µM (top of the series)): 86.2% (inactive)
O=C(CCSc1nc2cccc(F)c2c(=O)n1-c1ccccc1)Nc1ccc2c(c1)CCC2 | 52.6 | – | –
O=C(CSc1nc2ccccc2c(=O)n1-c1ccc(Cl)c(Cl)c1)NC1CCc2ccccc21 (configuration not stated) | – | – | viability ([2]; at 50 µM (top of the series)): 73.8% (inactive)
O=C(CSc1nc2ccccc2c(=O)n1-c1ccc(F)c(F)c1)NC1CCCc2ccccc21 (configuration not stated) | – | 76.2% (inactive) | –
O=C(CSc1nc2ccccc2c(=O)n1-c1cc(F)c(F)c(F)c1)NC1CCc2ccccc21 (configuration not stated) | 36 | – | –
O=C(CCCSc1nc2ccccc2c(=O)n1-c1ccccc1)Nc1ccc2c(c1)CCC2 | – | 85.5% (inactive) | –
O=C(CSc1nc2ccccc2c(=O)n1-c1cc(F)c(F)c(F)c1)Nc1ccc2c(c1)OCO2 | 32.8 | – | –
O=C(CSc1nc2ccccc2c(=O)n1-c1ccccc1)NC1CCc2ccccc21 (configuration not stated) | – | 75.5% (inactive) | –
Cn1c(NC(=O)CSc2nc3ccccc3c(=O)n2-c2ccc(Cl)c(Cl)c2)nc2ccccc21 | – | – | viability ([2]; at 50 µM (top of the series)): 74.2% (inactive)
O=C(CSc1nc2ccccc2c(=O)n1-c1ccc(Cl)c(Cl)c1)Nc1ccc2scnc2c1 | – | 75.5% (inactive) | –
O=C(CSc1nc2ccccc2c(=O)n1-c1ccc(Cl)c(Cl)c1)Nc1nc2cc(Cl)ccc2o1 | 18.8 | – | –
